Assay results reported in patent EP0059258A1, “Pharmaceutical preparations comprising polyprenyl compounds, especially as anti-cancer agents, and pharmaceutical compositions for the prevention and treatment of cancer and skin diseases” (Eisai Co., Ltd., priority 1980, dated 1982).

System: papillomata
Test: Anti-cancer activity: mouse skin papilloma test (7,12-dimethylbenzanthracene / croton oil induced)
Type: in vivo, mouse (ICR strain, female)
Settings: administered orally as 20 mg/ml solution in groundnut oil, 10 times for 14 days; total diameter on the 14th day vs. prior to administration
Description: A mouse (ICR strain, female, 50 days age) was shaved at the back of neck (to the extent of 5 cm^2). 7,12-Dimethylbenzo-[2]-anthracene was dissolved in acetone to give-75 mg /100 ml. solution. The so prepared solution was applied to the mouse on the 60th day of age and further on the 75th day of aqe in the amount of 0.2 ml per mouse.
Croton oil was dissolved in acetone to give 250 mg/ 100 ml solution, and the so prepared solution was applied to the mouse in the amount of 0.2 ml per mouse,-twice a week until the treatment was started. When 3 - 7 papillomata (diamether of 3 - 8 mm for each, and total diameter of 30 - 60 mm ) were produced for a mouse, the treatment was started.
The compound to be tested (test compound) was dissolved in groundnut oil to give 20' mg /ml solution, and administered orally to the mouse. The solution was administered 10 times for 14 days (once a day), and the diameters of the papillomata were measured on the 14th day to determine the total diameter for each mouse. Ratio of increase or decrease of the papillomata was calculated from the total diameter on the 14th day and the total diameter measured prior to the starting of administration of the test compound. This value was adopted' for evaluating the anti-cancer activity.

| Compound | Ratio of increase or decrease of papillomas(%) |
| --- | --- |
| CC(C)=CCCC(C)=CCCC(C)=CCCC(C)=CC=CC(C)=CC(=O)O [(1), 3,7,11,15,19-pentamethyl-2,4,6,10,14,18-eicosahexa-enoic acid] | −24.0 |
| CC(C)=CCCC(C)CCCC(C)=CC=CC(C)=CC(=O)O (stereo not drawn) [(2), 3,7,11,15-tetramethyl-2,4,6,14-hexadecatetraenoic acid] | −19.5 |
| CCOC(=O)C=C(C)C=CC=C(C)CCCC(C)CCC=C(C)C (stereo not drawn) [(3), ethyl 3,7,11,15-tetramethyl-2,4,6,14-hexadecatetra-enoate] | −10.2 |
| CC(C)=CCCC(C)=CC=CC(C)=CC=CC(C)=CC(=O)O [(4), 3,7,11,15-tetramethyl-2,4,6,8,10,14-hexadecahexaeno-ic acid] | −26.3 |
| CC(C)=CCCC(C)=CCCC(C)=CC=CC(C)=CC(N)=O [(5), 3,7,11,15-tetramethyl-2,4,6,10,14-hexadecapentaeno-amide] | −25.5 |
| CCOC(=O)C=C(C)C=CC=C(C)CCC=C(C)CCC=C(C)C [(6), ethyl 3,7,11,15-tetramethyl-2,4,6,10,14-hexadeca-pentaenoate] | −17.5 |
| CC(=O)C=CC=C(C)CCC=C(C)CCC=C(C)CCC=C(C)C [(7), 6,10,14,18-tetramethyl-3,5,9,13,17-nonadecapentaen-2-on] | −12.7 |
| CC(C)=CCCC(C)=CCCC(C)=CCCC(C)=CC(=O)O [(8), 3,7,11,15-tetramethyl-2,6,10,14-hexadecatetraenoic acid] | −6.5 |
| CC(=O)CCC=C(C)CCC=C(C)CCC=C(C)CCC=C(C)C [(9), 6,10,14,18-tetramethyl-5,9,13,17-nonadecatetraen-2-on] | −8.2 |
